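Values below derive from 48-hour exposures of cells grown in 96-well plates, with endpoints linearly interpolated between the two concentrations bracketing the appropriate inhibition level. GI50 is the concentration that inhibits growth by half. TGI denotes the concentration required for complete inhibition of growth.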

Common to all, as to assay: NCI tumour cell line growth inhibition, 48 h
The test system of assay [1] is SK-MEL-5 melanoma.
In assay [2] the test system is COLO 205 colon.
The test system of assay [3] is SR leukemia.
Assay [4] relates to T-47D breast.
The subject of assay [5] is OVCAR-8 ovarian.
For assay [6], the system named is OVCAR-5 ovarian.
The subject of assay [7] is IGROV1 ovarian.
For assay [8], the system named is NCI/ADR-RES ovarian.
Assay [9] concerns NCI-H522 lung.
Assay [10] concerns UACC-62 melanoma.

Regarding `CN(C)c1cccc2[nH]c(-c3[nH]ncc3Nc3ccnc(N)n3)nc12`, the GI50 is 0.0295 µM in assay [1]; < 0.01 µM in assay [2]; < 0.01 µM in assay [3]; 0.0331 µM in assay [4]; 0.0213 µM in assay [5]; 0.023 µM in [6]. Moreover, the GI50 in [7] was 0.0201 µM; in assay [8], 0.0328 µM; in assay [9] it was 0.0221 µM; in [10], 0.0136 µM. Also, the TGI was 0.15 µM in assay [1]; 0.0837 µM in assay [2]; 5.47 µM in assay [3]; 2.01 µM in [4]; 1.68 µM in assay [5]; 1.9 µM in [6]. For the same compound, the TGI is 0.346 µM in assay [7], 1.5 µM in assay [8], 0.166 µM in assay [9] and 0.0701 µM in assay [10].
As for `N#Cc1nc(-c2cccc(Br)c2)cc(-c2ccc(Nc3nc(N4CCCCC4)nc(N4CCCCC4)n3)cc2)c1N`, the GI50 in [1] was 1.76 µM; in assay [2] it was 1.99 µM; in assay [3], 1.29 µM; in assay [4], 1.3 µM; in [5], 2.66 µM; in assay [6], 2.06 µM. Besides, the GI50 was 3.33 µM in assay [8], 1.78 µM in assay [9] and 1.5 µM in assay [10]. The TGI is 3.18 µM in assay [1]; 4.64 µM in assay [2]; > 100 µM in assay [3]; 4.08 µM in assay [4]; > 100 µM in assay [5]; 4.7 µM in assay [6]. Also, the TGI was > 100 µM in assay [8], 4.72 µM in assay [9] and 3.27 µM in assay [10].
For `N#Cc1c(NC(=O)c2cccs2)[n+]([O-])c2ccccc2[n+]1[O-]`, the GI50 in [1] is 39.9 µM; in [2], > 100 µM; in assay [3], > 100 µM; in [4], 89.3 µM; in assay [5] it was 63.4 µM; in assay [6], > 100 µM. For the same compound, the GI50 in assay [8], in assay [9] and in [10] was > 100 µM throughout. For the same compound, the TGI in assay [1], in [2], in assay [3], in [4], in assay [5] and in [6] was > 100 µM each time. For the same compound, the TGI in assay [8], in assay [9] and in assay [10] was > 100 µM each time.
Regarding `CNC(=O)c1cc(Oc2ccc3nc(NC(=O)Nc4ccc(Cl)c(Cl)c4)sc3c2)ccn1`, the GI50 in assay [1] was 2.24 µM; in assay [2], 4.25 µM; in [3], 6.47 µM; in [4] it was 2.65 µM; in [5], 2.36 µM; in assay [7], 2.55 µM. Moreover, the values for the GI50 in assay [8], in [9] and in assay [10] were 2.3 µM, 4.09 µM and 2.32 µM, respectively. The TGI is 5.58 µM in assay [1]; > 100 µM in assay [2]; > 100 µM in assay [3]; 6.36 µM in assay [4]; 5.27 µM in assay [5]; 6.75 µM in assay [7]. Further, the TGI in assay [8] is 5.09 µM; in assay [9], > 100 µM; in assay [10] it was 7.76 µM.
Regarding `c1ccc(-c2nc(Nc3ccc(-c4nc5ccccc5[nH]4)cc3)nc(N3CCOCC3)n2)cc1`, the GI50 was 1.69 µM in assay [1]; 1.41 µM in assay [2]; 0.125 µM in assay [3]; 1.62 µM in assay [4]; 1.72 µM in assay [5]; 2.16 µM in assay [6]. In addition, the GI50 in [8] was 1.93 µM; in assay [9] it was 2.1 µM; in assay [10] it was 1.66 µM. Further, the TGI was 3.15 µM in [1]; 3.13 µM in [2]; 0.555 µM in assay [3]; 3.82 µM in assay [4]; 3.41 µM in [5]; 4.02 µM in assay [6]. The results for the TGI in [8], in assay [9] and in [10] were 5.53 µM, 3.92 µM and 3.48 µM, respectively.
For the compound `O=c1cc/c(=N\Nc2ccccc2)c(=O)/c1=N/Nc1ccccc1`, the GI50 in [1], in [2], in assay [3], in assay [4], in [5] and in assay [6] was > 50 µM each time. The GI50 in assay [7], in [8] and in assay [10] was > 50 µM throughout. Besides, the TGI in assay [1], in assay [2], in assay [3], in [4], in [5] and in assay [6] was > 50 µM in each case. The TGI in assay [7], in assay [8] and in [10] was > 50 µM each time.
As for `COc1ccc(Cl)cc1N1C(=O)C(Cl)=C(Nc2cccc(O)c2)C1=O`, the GI50 is 23 µM in [1]; 21.6 µM in [2]; 13.8 µM in [3]; 22.6 µM in assay [4]; 15.1 µM in [5]; 28.7 µM in [6]. Further, the GI50 is 27.2 µM in assay [8], 6.48 µM in assay [9] and 12.3 µM in assay [10]. In addition, the TGI in assay [1] was 39.8 µM; in assay [2], 57.1 µM; in assay [3], 54.5 µM; in [4], > 100 µM; in assay [5], 31.2 µM; in assay [6] it was 94.4 µM. In addition, the TGI stood at 95.4 µM in assay [8], 20.1 µM in [9] and 27.9 µM in assay [10].
As for `COc1ccc(/C=C/C(=O)c2ccc(Nc3ncnc4ccccc34)cc2)cc1OC`, the GI50 in [2] was 14.8 µM; in [3] it was 2.04 µM; in assay [4] it was 3.61 µM; in assay [5], 7.03 µM; in [6] it was 39.6 µM; in [7] it was 20.7 µM. Further, the GI50 in assay [8] is 3.82 µM; in [9], 7.45 µM; in assay [10], 10.7 µM. Moreover, the TGI in assay [2] was > 100 µM; in assay [3], 6.36 µM; in [4] it was 25.2 µM; in [5] it was 57.2 µM; in assay [6] it was > 100 µM; in assay [7] it was > 100 µM. In addition, the TGI in assay [8] was > 100 µM; in assay [9], 33.5 µM; in assay [10] it was 27.9 µM.

Source of the values: PubChem BioAssay (NCI).
